Source: paper PMC9332470, “Production and Selection of Antibody–Antigen Pairs for the Development of Immunoenzyme Assay and Lateral Flow Immunoassay Methods for Carbofuran and Its Analogues” (Biosensors, 2022)
Values after ≈ are worked out from the molar mass of the structure shown.

Experiments:
mAb 18G3 = experiment: ELISA reactivity of hybridoma supernatant, cell line 18G3; assay type: binding, BALB/c mice; details: cell line 18G3 supernatant, 50 ng/mL pesticide
Procedure: (§1) The desired antibodies with the highest affinity were screened by icELISA with carbofuran as a competitive compound, and hybridoma cells were cloned by the limited dilution method. Then, the selected hybridoma cells were injected into mice for ascites production. Finally, the mAbs were purified by (NH4)2SO4 with saturation of 50% and further purified by an SPA column.
(§2) Microplates were coated with coating antigens. Different concentrations of the standard (50 µL) and the mAb (50 µL) were added to each well, and the plates were incubated for 20 min at 37 °C. The plates were washed with PBS (0.01 M, containing 0.05% (v/v) Triton X-100), 100 μL of goat anti-mouse IgG-HRP conjugate solution was added to each well, and the plates were incubated for 20 min at 37 °C. After the plates were washed with PBS (0.01 M, containing 0.05% Triton X-100, v/v), 100 µL of TMB single-component substrate solution was added to each well, followed by incubation at 37 °C for 10 min. Finally, the reaction was terminated, and the absorbance at 450 nm was measured by a microplate reader.
(§3) The inhibition ratio (I%) was calculated as (B0-B)/B0 × 100%. IC50 is the concentration of the carbofuran at an I% of 50%, and the limit of detection (LOD) was determined as the concentration showing 10% of inhibition.
(§4) Then, the reactivity of the supernatant of the six cell lines to 50 ng/mL carbofuran, benfuracarb and carbosulfan was assessed by ELISA, and the results are shown in Table 1. […] Because 13C8 had the highest reactivity with carbofuran, benfuracarb and carbosulfan among the six cell lines, it was injected into mice for ascites production, and the mAbs were purified by a protein A column for further experiments.

mAb 13C8 [1] = experiment: indirect competitive ELISA (icELISA) with mAb 13C8; assay type: binding, BALB/c mice
Procedure: as §2
Taking the logarithm of the carbofuran concentration as the abscissa and (B/B0)% as the ordinate, the standard curves for ELISA and QD-LFIA were obtained based on the Morgan–Mercer–Flodin (MMF) model, which were fitted by CurveExpert 1.4.0 software (https://www.curveexpert.net, accessed on 15 July 2022). For the ELISA method, B and B0 are the absorbance of the sample well and blank well, respectively. For the QD-LFIA method, B and B0 are the T/C (fluorescence intensity of the test line/fluorescence intensity of the control line) of the sample and blank control, respectively.
as §3
The cross-reactivities (CRs) of benfuracarb, carbosulfan, 3-hydroxy-carbofuran, metolcarb, carbaryl, isoprocarb and aldicarb with carbofuran were assessed by ELISA and QD-LFIA. CR was calculated as CR (%) = [IC50 (carbofuran)/IC50 (analogues)] × 100%.
The microplate was coated with the coating antigens DDB-BSA (1 µg/mL), DDB-OVA (0.5 µg/mL), MDA-BSA (0.2 µg/mL) and MDA-OVA (0.1 µg/mL), and the concentration of mAb 13C8 was 0.03 µg/mL. Carbofuran standards (0, 0.05, 0.15, 0.45, 1.35 and 4.05 ng/mL) were detected to obtain a standard curve, and the IC50 was calculated. […] In the icELISA used in this study, free antigen (carbofuran) in solution competed with the coating antigen on the microplate for antibody 13C8; therefore, the IC50 value was negatively correlated with the antibody-binding ability of free antigen competing with coating antigens.
The ELISA method was developed with the antibody 13C8–antigen MDA-BSA pair. Under the optimized coating antigen concentration (0.1 μg/mL), HRP-conjugated goat anti-mouse IgG concentration (1 μg/mL), antibody concentration (0.03 μg/mL) and working buffer parameters (5 mM PBS at pH 7.4), a standard curve was obtained with the concentration of carbofuran on the abscissa and the inhibition ratio (B/B0) on the ordinate.

mAb 12D6 = experiment: ELISA reactivity of hybridoma supernatant, cell line 12D6; assay type: binding, BALB/c mice; details: cell line 12D6 supernatant, 50 ng/mL pesticide
Procedure: as §1, §2, §3, §4

mAb 12H5 = experiment: ELISA reactivity of hybridoma supernatant, cell line 12H5; assay type: binding, BALB/c mice; details: cell line 12H5 supernatant, 50 ng/mL pesticide
Procedure: as §1, §2, §3, §4

[2] = tested on: specific antibody against carbofuran; details: cited from earlier work
[3] = tested on: mAb with the immunogen BFNB-BSA; details: heterologous coating antigen BFNH-OVA; cited from earlier work
[4] = tested on: broad-specificity mAb with the immunogen BFNB-BSA; details: cited from earlier work
mAb 13C8 [5] = experiment: ELISA reactivity of hybridoma supernatant, cell line 13C8; assay type: binding, BALB/c mice; details: cell line 13C8 supernatant, 50 ng/mL pesticide
Procedure: as §1, §2, §3, §4

[6] = tested on: specific antibody against carbofuran; details: double-label time-resolved fluorescent strip; cited from earlier work

CNC(=O)Oc1cccc2c1OC(C)(C)C2 [carbofuran]
Reactivity of mAb (I%) (mAb 18G3): 86%
CR (%) (ELISA) (mAb 13C8 [1]; CR = IC50(carbofuran)/IC50(analogue) x 100%, optimized ELISA with mAb 13C8): 100.0%
IC50 (ELISA) (mAb 13C8 [1]; antibody 13C8, coating antigen DDB-BSA (1 µg/mL)): 0.19 ± 0.01 ng/mL (≈ 0.859 nM)
IC50 (ELISA) (mAb 13C8 [1]; antibody 13C8, coating antigen DDB-OVA (0.5 µg/mL)): 0.22 ± 0.02 ng/mL (≈ 0.994 nM)
IC50 (ELISA) (mAb 13C8 [1]; antibody 13C8, coating antigen MDA-BSA (0.2 µg/mL)): 0.20 ± 0.02 ng/mL (≈ 0.904 nM)
IC50 (ELISA) (mAb 13C8 [1]; antibody 13C8, coating antigen MDA-OVA (0.1 µg/mL)): 0.17 ± 0.01 ng/mL (≈ 0.768 nM)
detection limit (ELISA) (mAb 13C8 [1]; concentration showing 10% of inhibition, optimized ELISA): 0.02 ng/mL
working range (ELISA) (mAb 13C8 [1]; optimized ELISA): 0.02 to 2.09 ng/mL
IC50 (ELISA) (mAb 13C8 [1]; optimized ELISA, mAb 13C8 0.03 μg/mL, coating antigen 0.1 μg/mL, given as MDA-BSA and MDA-OVA, unit from text): 0.18 ± 0.03 ng/mL (≈ 0.814 nM)
Reactivity of mAb (I%) (mAb 12D6): 84%
Reactivity of mAb (I%) (mAb 12H5): 78%
IC50 (direct competitive ELISA) [2]: 1.3 ng/mL (≈ 5.88 nM)
IC50 (ic-ELISA) [3]: 0.66 ng/mL (≈ 2.98 nM)
CR(%) (ic-ELISA) [4]: 100.0%
IC50 (ic-ELISA) [4]: 8.97 ng/mL (≈ 40.5 nM)
Reactivity of mAb (I%) (mAb 13C8 [5]): 95%
detection limit [6]: 0.76 ng/mL
